pIC50: −log10 of the molar value.
Biological target: Gag-Pol polyprotein (Human immunodeficiency virus type 1 group M subtype B (isolateBRU/LAI) (HIV-1), UniProt P03367)
Assay: Inhibition Assay: Inhibition of HIV integrase.

| Compound | pIC50 |
| --- | --- |
| COC(=O)c1nc(Br)c2cccnc2c1OCc1ccccc1 | 6.02 |
| CCOC(=O)c1cc(F)ccc1C#N | 4.17 |
| CNS(=O)(=O)CCCCN=[N+]=[N-] | 6.60 |

Continued, values first:

| pIC50 | Compound |
| --- | --- |
| 6.00 | CNS(=O)(=O)CCCCCl |
| 6.44 | CNS(=O)(=O)CCCCN |
| 5.92 | CNS(=O)(=O)CCCCNC(=O)OC(C)(C)C |
| 5.80 | CNS(=O)(=O)CCCCC#N |
| 6.70 | COC(=O)c1nc(Br)c2cccnc2c1OS(=O)(=O)c1ccc(C)cc1 |
